Test results as given in patent US7632972B2, “Compounds and methods for treatment of cancer and modulation of programmed cell death for melanoma and other cancer cells” (The Board of Trustees of the University of Illionis, priority 2003, dated 2009).
Read-outs that look alike come from different tables or passages of the source.

Experiments:
[1] = test system: UACC-62; assay: Death induction in melanoma cell line; format: cell-based, human
Procedure: (§1) Given the interesting and somewhat unusual trait of G1 arrest, compounds x and y were tested for their ability to induce death in two melanoma cell lines: UACC-62 (human), and B16-F10 (mouse). […] Compounds x and y were also submitted for testing in the NCl 60-cell line assay. […] The triphenylamides (TPAs) induce apoptosis in these melanoma cell lines.

[2] = test system: B16-F10; assay: Death induction in melanoma cell line; format: cell-based, mouse
Procedure: as §1

[3] = test system: U-937 cells; assay: cells; format: cell-based, human; conditions: Homo sapiens; Table 13, U-937
[4] = test system: human bone marrow cells; assay: Toxicity to bone marrow cells of a healthy donor, MTS bioreduction after 72 hours; format: cell-based; conditions: Bone marrow cell, Table 13, bone marrow cells of healthy donor
From the text: Specificity for cancer cells. The vast majority of anti-cancer drugs are toxic to all rapidly dividing cell types, often leading to deleterious side effects and a reduced therapeutic window. For instance, hematopoietic bone marrow is responsible for the production of red and white blood cells, and the anemia observed upon treatment with certain chemotherapy agents is in a large part due to the toxicity of the anti-cancer drugs on cells in the human bone marrow. Thus, to determine the relative effect of the triphenylamides on melanoma versus normal cells, cells derived from the human bone marrow of a healthy donor were used; measurement of the effect on healthy bone marrow cells can assist in assessing the toxicity of putative anti-cancer agents. (17-20) These cells were treated with increasing concentrations of the compounds shown in Table 13, and cell viability was evaluated after 72 hours using the MTS bioreduction assay. The data in Table 13 indicate that several of the triphenyl amides have selective toxicity to melanoma cells versus the human bone marrow cells.

[5] = test system: HL-60 cells; assay: Determination of IC50 values, cell death by MTS/PMS after 72 h; conditions: Homo sapiens, HL-60, read-out: HL-60
Procedure: General Cell Culture Conditions: U-937 and HL-60 cell lines were grown in RPMI 1640 supplemented with 10% FBS and incubated at 37° C. in a 5% CO2, 95% air atmosphere and were split every two to three days as necessary.
Cells were then resuspended in RPMI 1640+10% FBS, counted using a hemocytometer and diluted so that 10,000 cells were seeded in to each well of a Corning 96-well flat bottom microtiter plate (Fisher, Chicago Ill.). Media was then added to bring the total volume of each well to 100 μL. Each compound was weighed and then diluted with EtOH to make a 100 mM stock solution. The compounds were added at 9 or more different concentration in 1 μL of EtOH. After a 72 h incubation (37° C. in a 5% CO2, 95% air atmosphere) cell death was quantitated by addition of 20 μL of the MTS/PMS CellTiter 96 Cell Proliferation Assay reagent (Promega, Madison Wis.) to each well. The plates were incubated at 37° C. for approximately 1 hour until the colored product formed and the absorbance was then measured at 490 nm in a Spectra Max Plus 384 plate reader (Molecular Devices, Sunnyvale Calif.). The IC50 was taken as the concentration that caused 50% cell death.

[6] = test system: U-937 cell line; assay: Death induction by amide library, MTS dye reduction; format: cell-based, human
Procedure: Compounds were tested in a U937 cell assay as previously described by Hergenrother et al. (see Hergenrother 2003 and U.S. 60/516,566).
The ability of the 100 amides thus produced to induce death in cancer cells was assessed by an assay based on the reduction of the MTS (3-(4,5-dimethylthiazol-2-yl)-5-(3-carboxymethoxyphenyl)-2-(4-sulfophenyl)-2H-tetrazolium, inner salt) dye. This tetrazolium dye is rapidly converted to the formazan product by living cells, and therefore provides a sensitive readout of cell life or death that can be monitored at 490 nm.

[7] = test system: U-937 cells; assay: High-throughput cell death assay on library members (MTS/PMS); format: cell-based, human; conditions: library members at 100 μM, 24 hours
Procedure: A three-tiered system was devised to identify compounds that selectively induce apoptosis in cancer cells. First, all compounds were screened at 100 μM in a high-throughput manner for their ability to induce death in two cancer cell lines, HL-60 (leukemia) and U-937 (lymphoma).
Test compounds were transferred into the wells using a 96-pin transfer apparatus (V & P Scientific, San Diego Calif.) that transfers 0.2 μL of compound. The compounds were made up as 50 mM stock solutions in 100% EtOH, so one transfer gave a final concentration of 100 μM. Controls were performed in which only EtOH (containing no compound) was pin-transferred into wells containing cells. The cells were incubated with the compounds for 24 hours, and then cell death was quantitated.

[8] = Homo sapiens, Table 13, UACC-62 melanoma, read-out: UACC-62
[9] = Mus musculus, B16-F10, Table 13, B16F10 melanoma, read-out: B16F10
[10] = Homo sapiens, U-937, hit compounds of first generation library, read-out: IC50 Value-U-937 cells
[11] = UACC-62, human melanoma cell line, read-out: IC50, UACC-62
[12] = B16-F10, mouse melanoma cell line, read-out: IC50, BF16-F10
[13] = hit compounds of first generation library, read-out: IC50 Value-U-937 cells

SMILES: O=P1(N(CCCl)CCCl)NCCCO1 (centres unmarked) [Cyclophosphamide]
- IC50 ([1]; Homo sapiens, UACC-62, read-out: UACC-62): > 100000 nM
- IC50 ([2]; Mus musculus, B16-F10, read-out: B16F10): > 100000 nM

SMILES: COc1cc([C@@H]2c3cc4c(cc3[C@@H](O[C@@H]3O[C@@H]5CO[C@@H](C)O[C@H]5[C@H](O)[C@H]3O)[C@H]3COC(=O)[C@H]23)OCO4)cc(OC)c1O [Etoposide]
- IC50 [1, 8]: > 100000 nM
- IC50 [2, 9]: > 100000 nM

SMILES: O=C(NC1C2CC3CC(C2)CC1C3)C(c1ccccc1)(c1ccccc1)c1ccccc1 (centres unmarked)
- IC50 [3]: 490 nM
- IC50 [1, 8]: 15300 nM
- IC50 [2, 9]: 7410 nM
- IC50 [4]: 320 nM
- IC50 [5]: 920 nM

SMILES: COc1cccc(/C=C/C(=O)Nc2cc(OC)c(OC)c(OC)c2)c1
- IC50 [6, 10]: 8000 nM

SMILES: O=C(CC(c1ccccc1)(c1ccccc1)c1ccccc1)NCCc1cccnc1
- IC50 [3]: 930 nM
- IC50 [1, 8]: 700 nM
- IC50 [2, 9]: 1610 nM
- IC50 [4]: 680 nM
- IC50 [5]: 1390 nM

SMILES: O=C(NC12CC3CC(CC(C3)C1)C2)C(c1ccccc1)(c1ccccc1)c1ccccc1 [drawing 75]
- IC50 [1, 11]: 2400 nM
- IC50 [2, 12]: 15600 nM

SMILES: COc1ccc(CNC(=O)C(c2ccccc2)(c2ccccc2)c2ccccc2)cc1
- IC50 [3]: 8160 nM
- IC50 [1, 8]: 690 nM
- IC50 [2, 9]: 600 nM
- IC50 [4]: 4770 nM
- IC50 [5]: 10500 nM

SMILES: CC(=O)OC(CNC(=O)C(c1ccccc1)(c1ccccc1)c1ccccc1)c1ccccc1 (centres unmarked)
- IC50 [3]: 10800 nM
- IC50 [1, 8]: 620 nM
- IC50 [2, 9]: 800 nM
- IC50 [4]: 4000 nM
- IC50 [5]: 16200 nM

SMILES: O=C(/C=C/c1ccc(O)c(O)c1)NCCc1ccc(O)cc1 [Compound 17-C]
- Induction of death in U-937 cells (percentages of cell death) [7]: 15%

SMILES: COc1cccc(/C=C/C(=O)NC[C@@H](OC)c2ccccc2)c1 [Compound 8-H]
- Induction of death in U-937 cells (percentages of cell death) [7]: 60%

SMILES: COc1ccc(CNC(=O)CC(c2ccccc2)(c2ccccc2)c2ccccc2)c(OC)c1
- IC50 [3]: 7170 nM
- IC50 [1, 8]: 520 nM
- IC50 [2, 9]: 550 nM
- IC50 [4]: 1870 nM
- IC50 [5]: 2260 nM

SMILES: COc1ccc([C@@H](CNC(=O)/C=C/c2ccccc2)OC)cc1 [Compound 10-A]
- Induction of death in U-937 cells (percentages of cell death) [7]: 51%

SMILES: COc1cc(/C=C/C(=O)NC[C@H](OC)c2ccc(O)cc2)ccc1O [Compound 11-D]
- Induction of death in U-937 cells (percentages of cell death) [7]: 34%

SMILES: COc1cc(/C=C/C(=O)NCCc2ccc(O)cc2)cc(OC)c1O [Compound 17-G]
- Induction of death in U-937 cells (percentages of cell death) [7]: 26%

SMILES: O=C(NC12CC3CC(CC(C3)C1)C2)C(c1ccccc1)(c1ccccc1)c1ccccc1 [drawing 78]
- IC50 [3]: 480 nM
- IC50 [1, 8]: 2410 nM
- IC50 [2, 9]: 15700 nM
- IC50 [4]: 590 nM
- IC50 [5]: 850 nM

SMILES: O=C(/C=C/c1ccc(O)cc1)NC[C@@H](O)c1ccc(O)cc1 [Compound 13-B]
- Induction of death in U-937 cells (percentages of cell death) [7]: 49%

SMILES: COc1ccccc1CCNC(=O)CC(c1ccccc1)(c1ccccc1)c1ccccc1 [drawing 69, R1 = OCH3, R2 = H, R3 = H]
- IC50 [6, 13]: 15700 nM

SMILES: O=C(NCCc1ccccc1)C(c1ccccc1)(c1ccccc1)c1ccccc1 [drawing 68, R = H]
- IC50 [6, 13]: 8000 nM

SMILES: COc1ccc([C@H](O)CNC(=O)/C=C/c2cc(OC)c(OC)c(OC)c2)cc1 [Compound 14-F]
- Induction of death in U-937 cells (percentages of cell death) [7]: 26%

SMILES: COc1cc(/C=C/C(=O)NC[C@H](O)c2ccc(O)cc2)cc(OC)c1OC [Compound 15-F]
- Induction of death in U-937 cells (percentages of cell death) [7]: 12%

SMILES: COc1ccc(CCNC(=O)/C=C/c2cccc(OC)c2)cc1 [Compound 18-H]
- Induction of death in U-937 cells (percentages of cell death) [7]: 56%

SMILES: COc1cccc(/C=C/C(=O)NC[C@@H](OC)c2ccc(O)cc2)c1 [Compound 9-H]
- Induction of death in U-937 cells (percentages of cell death) [7]: 38%

SMILES: O=C(/C=C/c1ccccc1)NC[C@@H](O)c1ccccc1 [Compound 12-A]
- Induction of death in U-937 cells (percentages of cell death) [7]: 26%

SMILES: COc1ccc(/C=C/C(=O)NC[C@@H](OC)c2ccccc2)cc1O [Compound 8-E]
- Induction of death in U-937 cells (percentages of cell death) [7]: 56%

SMILES: COc1cc(/C=C/C(=O)NC[C@@H](O)c2ccc(O)cc2)cc(OC)c1OC [Compound 13-F]
- Induction of death in U-937 cells (percentages of cell death) [7]: 22%

SMILES: COc1ccc(CCNC(=O)CC(c2ccccc2)(c2ccccc2)c2ccccc2)cc1OC [drawing 69, R1 = H, R2 = OCH3, R3 = OCH3]
- IC50 [6, 13]: 18300 nM

SMILES: COc1ccc([C@@H](CNC(=O)/C=C/c2ccc(O)c(OC)c2)OC)cc1 [Compound 10-D]
- Induction of death in U-937 cells (percentages of cell death) [7]: 31%

SMILES: CCCCCCCCCCCCCCCC(=O)N(C)C(C)C(O)c1ccccc1 (centres unmarked)
- IC50 ([6]; Homo sapiens, U-937, read-out: IC50 Value-U-937 cells): 3100 nM

SMILES: COc1cc(/C=C/C(=O)NC[C@@H](O)c2ccc(O)cc2)cc(OC)c1O [Compound 13-G]
- Induction of death in U-937 cells (percentages of cell death) [7]: 16%

SMILES: O=C(/C=C/c1ccccc1)NC[C@@H](O)c1ccc(O)cc1 [Compound 13-A]
- Induction of death in U-937 cells (percentages of cell death) [7]: 43%

SMILES: COc1ccc([C@H](O)CNC(=O)/C=C/c2cccc(OC)c2)cc1 [Compound 14-H]
- Induction of death in U-937 cells (percentages of cell death) [7]: 38%

SMILES: O=C(NC1CCCc2ccccc21)C(c1ccccc1)(c1ccccc1)c1ccccc1 (centres unmarked)
- IC50 [3]: 1250 nM
- IC50 [1, 8]: 1770 nM
- IC50 [2, 9]: 980 nM
- IC50 [4]: 500 nM
- IC50 [5]: 2210 nM

SMILES: COc1cccc(/C=C/C(=O)NC[C@H](O)c2ccc(O)cc2)c1 [Compound 15-H]
- Induction of death in U-937 cells (percentages of cell death) [7]: 24%

SMILES: CO[C@H](CNC(=O)/C=C/c1ccc(O)c(O)c1)c1ccc(O)cc1 [Compound 9-C]
- Induction of death in U-937 cells (percentages of cell death) [7]: −12%

SMILES: O=C(NCCc1ccccc1)C(c1ccccc1)(c1ccccc1)c1ccccc1 [drawing 73]
- IC50 [1, 11]: 490 nM
- IC50 [2, 12]: 420 nM

SMILES: O=C(/C=C/c1ccc(O)cc1)NC[C@@H](O)c1ccccc1 [Compound 12-B]
- Induction of death in U-937 cells (percentages of cell death) [7]: 47%

SMILES: CO[C@H](CNC(=O)/C=C/c1ccccc1)c1ccccc1 [Compound 8-A]
- Induction of death in U-937 cells (percentages of cell death) [7]: 70%

SMILES: C[C@]12C=CC(=O)C=C1CC[C@@H]1[C@@H]2C(=O)C[C@@]2(C)[C@H]1CC[C@]2(O)C(=O)CO [Prednisone]
- IC50 [1, 8]: > 100000 nM
- IC50 [2, 9]: > 100000 nM

SMILES: COc1ccc(/C=C/C(=O)NC[C@H](OC)c2ccc(O)cc2)cc1O [Compound 11-E]
- Induction of death in U-937 cells (percentages of cell death) [7]: 41%

SMILES: CO[C@H](CNC(=O)/C=C/c1ccc(O)cc1)c1ccccc1 [Compound 8-B]
- Induction of death in U-937 cells (percentages of cell death) [7]: 34%

SMILES: COc1ccc([C@H](O)CNC(=O)/C=C/c2ccc(O)cc2)cc1 [Compound 14-B]
- Induction of death in U-937 cells (percentages of cell death) [7]: 27%

SMILES: COc1ccc([C@@H](CNC(=O)/C=C/c2cc(OC)c(O)c(OC)c2)OC)cc1 [Compound 10-G]
- Induction of death in U-937 cells (percentages of cell death) [7]: 16%

SMILES: COc1cc(/C=C/C(=O)NC[C@@H](O)c2ccccc2)cc(OC)c1O [Compound 12-G]
- Induction of death in U-937 cells (percentages of cell death) [7]: 41%

SMILES: CO[C@@H](CNC(=O)/C=C/c1ccc(O)cc1)c1ccc(O)cc1 [Compound 11-B]
- Induction of death in U-937 cells (percentages of cell death) [7]: 60%

SMILES: COc1cc(/C=C/C(=O)NCCc2ccccc2)ccc1O [Compound 16-D]
- Induction of death in U-937 cells (percentages of cell death) [7]: 39%

SMILES: COc1ccc(/C=C/C(=O)NC23CC4CC(CC(C4)C2)C3)c2ccccc12
- IC50 [6, 10]: 7100 nM

SMILES: O=C(/C=C/c1ccc(O)cc1)NCCc1ccc(O)cc1 [Compound 17-B]
- Induction of death in U-937 cells (percentages of cell death) [7]: 32%

SMILES: CO[C@@H](CNC(=O)/C=C/c1ccc(O)c(O)c1)c1ccc(O)cc1 [Compound 11-C]
- Induction of death in U-937 cells (percentages of cell death) [7]: −9%

SMILES: COc1cccc(CCNC(=O)CC(c2ccccc2)(c2ccccc2)c2ccccc2)c1 [drawing 74]
- IC50 [1, 11]: 1340 nM
- IC50 [2, 12]: 850 nM
